Experimental data reported in patent publication US7288258B2, “Polyepitopic protein fragments of the E6 and E7 proteins of HPV, their production and their use particularly in vaccination” (Peptide Immune Ligands, priority 1999, dated 2007).

Assays:
Test in all cases: association of peptide with HLA molecules and stability of the complex
Details in all cases: stable complex: peptide remains bound for at least about 3 hours at 37° C.
[1] = test system: HLA molecules of the A29 type; assay type: binding, human
Text: (§1) The different epitopes of the polyepitopic region of the predetermined protein, and delimiting the epitopic protein fragments, are preferably selected from the peptides; • binding to a predetermined molecule of MCH, particularly to a molecule of the predetermined HLA type, and this from concentrations of about 10^−6 M to about 10^−10 M in peptide for concentrations of about 10^−7 M of HLA molecules, particularly under the conditions described hereafter, • and forming a stable complex with said MCH molecule, namely particularly a complex in which said peptide remains bound to said molecule for at least about 3 hours at 37° C.
(§2) By way of illustration, the above-mentioned epitopes of the invention are selected from among the peptides adapted: • on the one hand of associating with the molecules of MCH, particularly by using the following method: • incubation (particularly for about 2 hours at 25° C., then about 15 hours at 4° C.) of the peptide in the presence of MCH molecules, from the lysis of human or animal cells, or purified particularly by affinity chromatography from human or animal cell lines, • trapping complexes formed during the preceding step on a solid support covered with a first antibody, particularly monoclonal, recognizing specifically the CMH molecules in their configuration dependent on their connection to said peptide, • addition to the preceding solid support of a second marked antibody, particularly by coupling to a radioactive, enzymatic or fluorescent marker, said marked antibody recognizing specifically either the long chains of MCH in their configuration dependent on their connection to the peptide, or the short chain of MCH or the β2-microglobulin binding specifically to the different long chains of the MCH in their above-mentioned configuration, • detection, after rinsing of the solid support, of the possible presence of the second marked antibody remaining fixed on the solid support, signifying an association effect between the molecules of MCH and the peptide studied, • and, on the other hand, forming a complex with said MCH molecules, whose stability can be evaluated by the use of a method of following according to time the connection established between the peptide and the MCH molecules, this method being preferably carried out according to a protocol identical to the preceding method, but in which the incubation step of the peptide in the presence of MCH molecules on the solid support covered with said first antibody, is preceded by a preliminary step of eliminating the free peptide adapted that may be present in the reaction medium, particularly by washing the solid support, said incubation step being carried out (preferably at a temperature of 37° C.) for variable times of 1 hours, 3 hours, 5 hours, 24 hours and 48 hours.
(§3) As mentioned above, the epitopes of the invention should be recognized by the T cells in association with the MCH molecules and associate with these latter, particularly in the framework of the practice of the recognition test described above. This association can be weak (detectable at concentrations of peptide analogs of the order of 10^−4 to 10^−5 M), intermediate (detectable at concentrations of peptide analogs of the order of 10^−6 to 10^−7 M), or strong (detectable at concentrations of peptide analogs of the order of 10^−8 to 10^−9 M). The peptides associated with the MCH molecules in the scope of the present invention are preferably adapted to bond during at least about 3 hours, to said MCH molecules.

[2] = test system: HLA molecules of the B44 type; assay type: binding, human
Text: as §1, §2, §3

[3] = test system: HLA molecules of the B35 type; assay type: binding, human
Text: as §1, §2, §3

[4] = molecular target: T1, HLA molecules of the B7 type (Homo sapiens, UniProt P01889); assay type: binding
T1 construct: endogenous in cells
Text: as §1, §2, §3

[5] = test system: HLA molecules of the B8 type; assay type: binding, human
Text: as §1, §2, §3

[6] = test system: HLA molecules of the A24 type; assay type: binding, human
Text: as §1, §2, §3

[7] = test system: HLA molecules of the B51 type; assay type: binding, human
Text: as §1, §2, §3

[8] = test system: HLA molecules of the A2 type; assay type: binding, human
Text: as §1, §2, §3

[9] = test system: HLA molecules of the A11 type; assay type: binding, human
Text: as §1, §2, §3

[10] = molecular target: T2, HLA molecules of the A3 type (Homo sapiens, UniProt P04439); assay type: binding
T2 construct: endogenous in cells
Text: as §1, §2, §3

[11] = test system: HLA molecules of the B27 type; assay type: binding, human
Text: as §1, §2, §3

T2 sequence (P61769 21-119): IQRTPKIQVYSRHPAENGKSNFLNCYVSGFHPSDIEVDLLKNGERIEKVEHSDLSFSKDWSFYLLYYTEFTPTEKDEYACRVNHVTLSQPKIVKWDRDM
T2 sequence (P04439 25-365): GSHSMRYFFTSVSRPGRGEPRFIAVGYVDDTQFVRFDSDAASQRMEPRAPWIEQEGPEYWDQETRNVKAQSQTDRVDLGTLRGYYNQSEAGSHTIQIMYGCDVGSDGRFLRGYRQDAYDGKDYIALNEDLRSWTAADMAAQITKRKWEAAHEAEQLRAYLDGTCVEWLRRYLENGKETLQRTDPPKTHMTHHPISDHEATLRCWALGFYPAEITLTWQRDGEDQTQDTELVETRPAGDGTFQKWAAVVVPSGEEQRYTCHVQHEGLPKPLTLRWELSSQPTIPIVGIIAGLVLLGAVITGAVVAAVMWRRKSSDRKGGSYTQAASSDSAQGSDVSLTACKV
T1 sequence (P01889 25-362): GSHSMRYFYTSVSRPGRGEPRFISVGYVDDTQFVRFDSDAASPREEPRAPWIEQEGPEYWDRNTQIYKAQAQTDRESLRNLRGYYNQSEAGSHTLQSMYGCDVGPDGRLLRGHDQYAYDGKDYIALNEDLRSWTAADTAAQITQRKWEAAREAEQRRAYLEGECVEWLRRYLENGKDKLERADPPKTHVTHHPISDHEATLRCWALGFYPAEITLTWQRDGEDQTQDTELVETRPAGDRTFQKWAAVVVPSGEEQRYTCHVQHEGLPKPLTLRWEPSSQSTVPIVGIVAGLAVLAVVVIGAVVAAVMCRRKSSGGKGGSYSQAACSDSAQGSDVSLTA
T1 sequence (P61769 21-119, further chain): as the sequence (P61769 21-119) above

In the case of AEPDRAHY (Human Papillomavirus), the “binding stably to HLA molecules of the A29 type” value (shortened to “binding stably … of the A29 type”) [1] is reported as “binding stably” and the “binding stably to HLA molecules of the B44 type” value (“binding stably … of the B44 type” below) [2] is reported as “binding stably”.

With ALNKMFCQL (listed as Homo sapiens) the “binding stably to HLA molecules of the B35 type” value (from here on “binding stably … of the B35 type”) [3] was “binding stably”.

With APPQHLIRV the “binding stably to HLA molecules of the B7 type” value (shortened to “binding stably … of the B7 type”) [4] was “binding stably”.

In the case of CVYCKQQL (Human Papillomavirus), the “binding stably to HLA molecules of the B8 type” value (shortened to “binding stably … of the B8 type”) [5] is reported as “binding stably”.

For CYSLYGTTL (Human Papillomavirus), the “binding stably to HLA molecules of the A24 type” value (shortened to “binding stably … of the A24 type”) [6] was “binding stably”.

For DKKQRFHNI (Human Papillomavirus), the “binding stably … of the B8 type” value [5] was “binding stably”.

With EPDRAHYNIV (Human Papillomavirus) the “binding stably … of the B35 type” value [3] was “binding stably” and the “binding stably … of the B7 type” value [4] was “binding stably”.

EYLDDRNTF was tested, and the “binding stably … of the A24 type” value [6] was “binding stably”.

FAFRDLCIV (Human Papillomavirus) was tested, and the “binding stably … of the B35 type” value [3] was “binding stably”, the “binding stably to HLA molecules of the B51 type” value (“binding stably … of the B51 type” below) [7] was “binding stably” and the “binding stably to HLA molecules of the A2 type” value (from here on “binding stably … of the A2 type”) [8] was “binding stably”. The “binding stably … of the B7 type” value [4] was “binding stably”.

FRDLCIVYR (Human Papillomavirus) was tested, and the “binding stably to HLA molecules of the A11 type” value (from here on “binding stably … of the A11 type”) [9] was “binding stably” and the “binding stably to HLA molecules of the A3 type” value (shortened to “binding stably … of the A3 type”) [10] was “binding stably”.

For FRHSVVVPY (listed as Homo sapiens), the “binding stably to HLA molecules of the B27 type” value (shortened to “binding stably … of the B27 type”) [11] was “binding stably”.

GDTPTLHEY (Human Papillomavirus) was tested, and the “binding stably … of the B44 type” value [2] was “binding stably”.

In the case of GLAPPQHLIRV, the “binding stably … of the A2 type” value [8] is reported as “binding stably”.

GRNSFEVR (listed as Homo sapiens) was tested, and the “binding stably … of the B27 type” value [11] was “binding stably”.

GSYGFRLGFL (listed as Homo sapiens) was tested, and the “binding stably … of the B35 type” value [3] was “binding stably”.

For IILECVYCK (Human Papillomavirus), the “binding stably … of the A11 type” value [9] was “binding stably”.

With IRVEGNLRVEY (listed as Homo sapiens) the “binding stably … of the B27 type” value [11] was “binding stably”.

ITLEDSSGN (listed as Homo sapiens) was tested, and the “binding stably … of the A2 type” value [8] was “binding stably”.

With IVCPICSQK the “binding stably … of the A11 type” value [9] was “binding stably” and the “binding stably … of the A3 type” value [10] was “binding stably”.

With IVYRDGNPY the “binding stably … of the A11 type” value [9] was “binding stably” and the “binding stably … of the A3 type” value [10] was “binding stably”.

In the case of IYKQSQHM (listed as Homo sapiens), the “binding stably … of the A24 type” value [6] is reported as “binding stably”.

KKQRFHNIR (Human Papillomavirus) was tested, and the “binding stably … of the B27 type” value [11] was “binding stably”.

In the case of KLPQLCTEL, the “binding stably … of the A2 type” value [8] is reported as “binding stably”.

In the case of KPLCDLLI (Human Papillomavirus), the “binding stably … of the B35 type” value [3] is reported as “binding stably”, the “binding stably … of the B51 type” value [7] is reported as “binding stably” and the “binding stably … of the B7 type” value [4] is reported as “binding stably”.

For LECVYCKQQL (Human Papillomavirus), the “binding stably … of the A29 type” value [1] was “binding stably” and the “binding stably … of the B44 type” value [2] was “binding stably”.

For LEDLLMGTL (Human Papillomavirus), the “binding stably … of the A29 type” value [1] was “binding stably” and the “binding stably … of the B44 type” value [2] was “binding stably”.

With LEDSSGNLL (listed as Homo sapiens) the “binding stably … of the B44 type” value [2] was “binding stably”.

For LEQQYNKPL, the “binding stably … of the A29 type” value [1] was “binding stably” and the “binding stably … of the B44 type” value [2] was “binding stably”.

In the case of LLGRNSFEV, the “binding stably … of the A2 type” value [8] is reported as “binding stably”.

For LLMGTLGIV, the “binding stably … of the A2 type” value [8] was “binding stably”.

LPQLCTEL (Human Papillomavirus) was tested, and the “binding stably … of the B51 type” value [7] was “binding stably”.

LRVEYLDDR (listed as Homo sapiens) was tested, and the “binding stably … of the B27 type” value [11] was “binding stably”.

In the case of NIVTFCCK (Human Papillomavirus), the “binding stably … of the A11 type” value [9] is reported as “binding stably” and the “binding stably … of the A3 type” value [10] is reported as “binding stably”.

For NTFRHSVVV, the “binding stably … of the B8 type” value [5] was “binding stably”.

With NYMCNSSCM (listed as Homo sapiens) the “binding stably … of the A24 type” value [6] was “binding stably”.

With PEEKQRHL (Human Papillomavirus) the “binding stably … of the B44 type” value [2] was “binding stably”.

For PPGTRVRAM (listed as Homo sapiens), the “binding stably … of the B35 type” value [3] was “binding stably”.

In the case of QLCTELQTTI (Human Papillomavirus), the “binding stably … of the A2 type” value [8] is reported as “binding stably”.

With QRFHNIRGRW (Human Papillomavirus) the “binding stably … of the B27 type” value [11] was “binding stably”.

In the case of RFHNIRGRW (Human Papillomavirus), the “binding stably … of the A24 type” value [6] is reported as “binding stably”.

In the case of RPILTIITL, the “binding stably … of the B35 type” value [3] is reported as “binding stably” and the “binding stably … of the B7 type” value [4] is reported as “binding stably”.

RPRKLPQL (Human Papillomavirus) was tested, and the “binding stably … of the B35 type” value [3] was “binding stably” and the “binding stably … of the B7 type” value [4] was “binding stably”.

In the case of RREVYDFAFR (Human Papillomavirus), the “binding stably … of the B27 type” value [11] is reported as “binding stably”.

RRPILTIITL (listed as Homo sapiens) was tested, and the “binding stably … of the B27 type” value [11] was “binding stably”.

With RVEGNLRVEY (listed as Homo sapiens) the “binding stably … of the A2 type” value [8] was “binding stably”.

In the case of RVRAMAIYK (listed as Homo sapiens), the “binding stably … of the A3 type” value [10] is reported as “binding stably”.

SDCTTIHYNY (listed as Homo sapiens) was tested, and the “binding stably … of the B44 type” value [2] was “binding stably”.

With SEYRHYCY (Human Papillomavirus) the “binding stably … of the A29 type” value [1] was “binding stably” and the “binding stably … of the B44 type” value [2] was “binding stably”.

In the case of STPPPGTRV (listed as Homo sapiens), the “binding stably … of the A2 type” value [8] is reported as “binding stably”.

For SYGFRLGFL (listed as Homo sapiens), the “binding stably … of the A24 type” value [6] was “binding stably”.

TELQTTIHDI (Human Papillomavirus) was tested, and the “binding stably … of the A29 type” value [1] was “binding stably” and the “binding stably … of the B44 type” value [2] was “binding stably”.

With TFRHSVVV (listed as Homo sapiens) the “binding stably … of the A24 type” value [6] was “binding stably”.

TIHDIILRCV was tested, and the “binding stably … of the A2 type” value [8] was “binding stably”.

For TLEQQYNK (Human Papillomavirus), the “binding stably … of the A11 type” value [9] was “binding stably” and the “binding stably … of the A3 type” value [10] was “binding stably”.

TLGIVCPI (Human Papillomavirus) was tested, and the “binding stably … of the A2 type” value [8] was “binding stably”.

With TPTLHEYML (Human Papillomavirus) the “binding stably … of the B35 type” value [3] was “binding stably”.

With TRVRAMAIYK (listed as Homo sapiens) the “binding stably … of the B27 type” value [11] was “binding stably”.

In the case of TYQGSYGFRL, the “binding stably … of the A24 type” value [6] is reported as “binding stably”.

TYSPALNKMF was tested, and the “binding stably … of the A24 type” value [6] was “binding stably”.

With VEGNLRVEY (listed as Homo sapiens) the “binding stably … of the B44 type” value [2] was “binding stably”.

With VEYLDDRNTF (listed as Homo sapiens) the “binding stably … of the B44 type” value [2] was “binding stably”.

For VRVCACPGR (listed as Homo sapiens), the “binding stably … of the B27 type” value [11] was “binding stably”.

For VYDFAFRDL (Human Papillomavirus), the “binding stably … of the A24 type” value [6] was “binding stably”.

YDFAFRDL (Human Papillomavirus) was tested, and the “binding stably … of the A29 type” value [1] was “binding stably” and the “binding stably … of the B44 type” value [2] was “binding stably”.

In the case of YMLDLQPETT, the “binding stably … of the A2 type” value [8] is reported as “binding stably”.
